Drawing on US7422846B2, “Natural ligand for orphan G protein coupled receptor GPR86 and methods of use” (Euroscreen S.A, priority 2001, dated 2008), this text covers IC50 and IP3 response for five compounds.

In assay [1] the target is T1, human P2Y13 (GPR86) (Homo sapiens, UniProt Q9BPV8, T179M).
T1 construct: expressed in transfected cells; host or cells: 1321N1 astrocytoma clone AG32 (stably expressing Gα16 from pERAEQ2), G418-selected
T1 sequence (Q9BPV8 22-354 T179M): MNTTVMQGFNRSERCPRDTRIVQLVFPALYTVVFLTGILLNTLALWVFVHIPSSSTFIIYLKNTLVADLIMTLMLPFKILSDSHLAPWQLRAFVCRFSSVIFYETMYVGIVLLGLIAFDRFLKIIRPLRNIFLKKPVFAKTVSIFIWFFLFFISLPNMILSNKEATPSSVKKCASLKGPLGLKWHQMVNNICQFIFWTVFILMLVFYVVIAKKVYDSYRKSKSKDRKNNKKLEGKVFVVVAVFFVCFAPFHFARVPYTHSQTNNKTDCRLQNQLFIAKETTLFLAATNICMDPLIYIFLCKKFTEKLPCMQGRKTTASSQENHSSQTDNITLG
The assay is described as follows: Antagonism of ADP-induced IP3 accumulation in human P2Y13-AG32 cells. The assay is classed as cell-based. Particulars: 10 min pre-incubation, then ADP 100 nM for 30 s; means±S.D. of three independent experiments. The protocol: Antagonist were tested on AG32 cells transfected with human GPR86. AG32 cells were seeded (200,000 cells per dish) on 35 mm (diameter) Petri dishes and labeled for 24 h with 5 μCi/ml [^3H]-myoinositol in inositol free DMEM containing 5% fetal calf serum, antibiotics, amphotericin, sodium pyruvate, and 400 μg/ml of G418. […] Prior to the stimulation, cells were pre-incubated for 10 min in presence of Reactive Blue 2 (RB-2), Suramine, PPADS or MRS-2179. The cells were then incubated in presence of ADP 100 nM for 30 s. The incubation was stopped by the addition of 1 ml of an ice-cold 3% perchloric acid solution. […] The data represent the mean±S.D. of triplicate experimental points obtained in one representative experiment of three.

The test system of assay [2] is 1321N1 cells expressing GPR86 receptor alone. The conditions noted are these: nucleotides 100 μM for 30 s.
Protocol: Cells of the invention, for example, 1321N1 cells, are labelled for 24 hours with 10 μCi/ml [^3H] inositol in inositol free DMEM containing 5% FCS, antibiotics, amphotericin, sodium pyruvate and 400 μg/ml G418. Cells are incubated for 2 h in Krebs-Ringer Hepes (KRH) buffer of the following composition (124 mM NaCl, 5 mM KCl, 1.25 mM MgSO4, 1.45 mM CaCl2, 1.25 mM KH2PO4, 25 mM Hepes (pH: 7.4) and 8 mM glucose). The cells are then challenged with various nucleotides for 30 s. The incubation is stopped by the addition of an ice cold 3% perchloric acid solution. IP are extracted and separated on Dowex columns as previously described (25). 2MeSATP and ATP solutions (1 mM) are treated at room temperature with 20 units/ml CPK and 10 Mm cp for 90 min to circumvent problems arising from the contamination and degradation of triphosphate nucleotide solutions.
The pool of G418-resistant clones was tested for its functional IP3 response to several nucleotides, according to the method described above. The cells were challenged by various nucleotides at a concentration of 100 μM for 30 s: ATP, ADP, UTP, UDP, ITP, IDP, TDP.

The term IC50 denotes the concentration that inhibits the measured activity by half. Turning to `CNc1ncnc2c1ncn2[C@H]1C[C@H](OP(=O)(O)O)[C@@H](COP(=O)(O)O)O1` [MRS-2179], the IC50 in assay [1] was > 100000 nM.
Same read-out and setting: under `Cc1nc(N=Nc2ccc(S(=O)(=O)O)cc2S(=O)(=O)O)c(COP(=O)(O)O)c(C=O)c1O` [PPADS] stands 11700 ± 900 nM.
Still for that read-out and setting: under `Cc1ccc(C(=O)Nc2ccc(S(=O)(=O)O)c3cc(S(=O)(=O)O)cc(S(=O)(=O)O)c23)cc1NC(=O)c1cccc(NC(=O)Nc2cccc(C(=O)Nc3cc(C(=O)Nc4ccc(S(=O)(=O)O)c5cc(S(=O)(=O)O)cc(S(=O)(=O)O)c45)ccc3C)c2)c1` [Suramine] stands 2300 ± 400 nM.
In the case of `NCCc1c[nH]cn1` [histamine], in assay [2], the IP3 response result is “strong IP3 response”.
In assay [1], Reactive Blue 2 yielded an IC50 of 1900 ± 100 nM.
